Results reported in ChEMBL document CHEMBL1201862, “PubChem BioAssay data set” (2004).
Calls of active or inactive are those of the source.

Experiments:
[1] = system: Streptococcus sp. 'group A'; assay: growth inhibition of control SK(-) GAS strain, dose response, counter-screen for streptokinase expression inhibitor project, luminescence, kanamycin, BacTiterGlo, confirmation (AID 1900); assay type: functional, organism-based
Beta-galactosidase = Beta-galactosidase (Escherichia coli, UniProt Q8VNN2); assay: PubChem AID 485352; assay type: functional
[2] = molecular target: T1, Heat shock factor protein 1 (Mus musculus, UniProt P38532); assay: inhibition of MG132-induced HSE-luciferase signal, confirmation, cell-based, NIH3T3, luminescence, dose retest (AID 2382); assay type: functional;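 note: NIH3T3 fibroblasts with HSF1-driven luciferase reporter stressed by proteasome inhibitor MG132; luminescence from HSF1-driven luciferase expression after 8 hours of MG132 stress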
T1 sequence (P38532 whole entry): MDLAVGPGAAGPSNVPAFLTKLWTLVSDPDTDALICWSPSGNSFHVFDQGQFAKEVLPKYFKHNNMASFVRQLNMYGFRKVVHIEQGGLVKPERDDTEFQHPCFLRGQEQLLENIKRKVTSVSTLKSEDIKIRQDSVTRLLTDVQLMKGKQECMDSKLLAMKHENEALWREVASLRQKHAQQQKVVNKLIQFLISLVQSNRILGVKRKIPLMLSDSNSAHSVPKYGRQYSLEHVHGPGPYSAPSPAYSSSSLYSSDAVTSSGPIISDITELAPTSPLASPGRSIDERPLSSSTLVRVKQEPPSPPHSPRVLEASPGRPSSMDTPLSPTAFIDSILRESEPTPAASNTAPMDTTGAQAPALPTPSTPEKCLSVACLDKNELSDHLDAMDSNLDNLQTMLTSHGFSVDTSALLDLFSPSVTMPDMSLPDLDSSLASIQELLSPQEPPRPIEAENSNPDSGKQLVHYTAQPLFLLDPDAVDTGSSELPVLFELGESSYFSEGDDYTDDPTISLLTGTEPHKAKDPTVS

Streptokinase A = molecular target: T2, Streptokinase A (Streptococcus pyogenes serotype M1, UniProt P10520); assay: S. pyogenes streptokinase expression inhibitors, potency, dose response, plasminogen activation absorbance, OD405 (AID 1914); assay type: functional, Streptococcus pyogenes M1 GAS;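 note: secreted streptokinase activity via plasminogen activation per viability signal from cell pellet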
T2 sequence (P10520 whole entry): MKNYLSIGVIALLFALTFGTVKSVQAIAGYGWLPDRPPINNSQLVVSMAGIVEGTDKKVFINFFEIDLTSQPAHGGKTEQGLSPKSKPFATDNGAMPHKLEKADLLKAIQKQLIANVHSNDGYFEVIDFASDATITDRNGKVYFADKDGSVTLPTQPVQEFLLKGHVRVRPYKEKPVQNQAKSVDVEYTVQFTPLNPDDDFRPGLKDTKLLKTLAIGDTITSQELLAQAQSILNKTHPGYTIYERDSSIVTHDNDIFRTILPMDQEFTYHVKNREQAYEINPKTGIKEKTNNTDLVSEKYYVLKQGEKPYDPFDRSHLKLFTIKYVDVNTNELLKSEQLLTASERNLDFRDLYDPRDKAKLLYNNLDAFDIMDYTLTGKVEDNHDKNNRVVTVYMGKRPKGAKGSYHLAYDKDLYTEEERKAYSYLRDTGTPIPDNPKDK

[3] = inhibitors of intracellular T. cruzi replication, confirmation, NIH3T3 host cells, beta-gal luminescence (AID 2044); assay type: functional, cell-based;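 note: intracellular parasites grown in NIH/3T3 mouse fibroblasts as host cells; luminescent beta-galactosidase reporter signal from transgenic T. cruzi replicating inside host cells; inhibitors lower the luminescence signal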
[4] = Luminescence-based dose response cell-based high throughput screening assay for cytotoxic compounds using the IEC-6 intestinal epithelial cell line. [Related pubchem assays: 1858 (Summary AID.), 1825 (Counterscreen.), 1907 (Confirmation screen.)]; assay type: functional
[5] = molecular target: T3, Type-1 angiotensin II receptor (Homo sapiens, UniProt P30556); assay: AT1 receptor antagonists, dose response, selectivity assay for APJ receptor antagonist project, cell-based, uHTS hits (AID 463214); assay type: functional;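 note: antagonist potency against angiotensin II stimulated AT1 response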
T3 sequence (P30556 whole entry): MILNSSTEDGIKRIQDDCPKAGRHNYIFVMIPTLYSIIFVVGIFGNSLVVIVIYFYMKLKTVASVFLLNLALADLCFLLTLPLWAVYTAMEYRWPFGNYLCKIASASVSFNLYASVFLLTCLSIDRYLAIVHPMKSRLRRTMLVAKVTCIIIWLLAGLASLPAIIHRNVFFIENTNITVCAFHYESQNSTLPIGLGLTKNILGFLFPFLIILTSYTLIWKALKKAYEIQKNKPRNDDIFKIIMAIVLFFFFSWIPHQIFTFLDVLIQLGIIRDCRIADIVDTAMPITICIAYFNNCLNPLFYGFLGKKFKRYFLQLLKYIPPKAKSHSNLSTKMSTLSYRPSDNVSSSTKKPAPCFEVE

[6] = cytotoxicity toward NIH3T3 fibroblasts, dose response, counter-screen, cell-based, ATP luminescence, mouse fibroblasts (AID 2010); assay type: functional;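 note: cells exposed to compound for about 90 hours before reading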
Streptococcus = assay: Group A Streptococcus viability loss, dose response, counter-screen for streptokinase expression inhibitor project, luminescence, BacTiterGlo (AID 1915); assay type: functional, organism-based;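 note: potency for reduction of bacterial viability or growth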
[7] = cytotoxicity in HEK-293T cells, dose response, cytotoxicity control for TCR NF-kB inhibitor project, luminescence, T-cell screen hits (AID 489026); assay type: functional, cell-based;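 note: cells exposed to compound about 14 hours before the viability readout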
HEK293 [8] = assay: cytotoxicity in HEK293T NF-kB-Luc cells, SAR follow-up, cytotoxicity control for NF-kB activator project, cell-based, resazurin fluorescence (AID 493251); assay type: functional; details: Homo sapiens
Jurkat = assay: SAR Analysis of small molecule inhibitors of both B-cell and T-cell specific antigen receptor-induced NF-kB activation in a Jurkat cell line using a luminescence assay. [Related pubchem assays (depositor defined):AID435003, AID435022, AID465, AID489029]; assay type: functional, cell-based; details: Homo sapiens
HEK293 [9] = assay: SAR Analysis of small molecule inhibitors of both B-cell and T-cell specific antigen receptor-induced NF-kB activation in a HEK-293T cell line using a luminescence assay. [Related pubchem assays (depositor defined):AID435003, AID435022, AID465, AID489019, AID489029]; assay type: functional, cell-based; details: Homo sapiens
[10] = Shn3 3'UTR reporter inhibitors, dose response, cell-based, Clone20 osteoblasts, firefly luciferase, cherry-picked (AID 624132); assay type: functional;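 note: firefly luciferase luminescence from reporter carrying the Shn3 3'UTR in osteoblasts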
[11] = HepG2 cell cytotoxicity, dose response, cytotoxicity control for Shn3 inhibitor project, CellTiter-Glo, cherry-picked (AID 624134); assay type: functional, cell-based
[12] = control 3'UTR Renilla luciferase suppression, dose response, counter-screen for Shn3 inhibitor project, cell-based, Clone20-Shn3RL, cherry-picked (AID 624133); assay type: functional
[13] = Fluorescence-based cell-based high throughput dose response assay for inhibitors of the interaction of nucleotide-binding oligomerization domain containing 2 (NOD2) and the receptor-interacting serine-threonine kinase 2 (RIPK2).; assay type: functional; details: Homo sapiens
[14] = molecular target: Cyclin-dependent kinase 2 (Homo sapiens, UniProt P24941); assay: CDK2 kinase inhibitors, off-target check, dose response, selectivity assay for Dyrk1A inhibitor project, biochemical, cherry-picked samples (AID 602127)
[15] = molecular target: Dual specificity protein kinase CLK1 (Homo sapiens, UniProt P49759); assay: CLK1 kinase inhibitors, off-target check, dose response, selectivity assay for Dyrk1A inhibitor project, biochemical, cherry-picked samples (AID 588811)
BJ [16] = assay: cytotoxicity toward BJ-TERT fibroblasts, dose response, cell-based, RAS-independent, luminescence (AID 1933); assay type: functional, Homo sapiens; details: Homo sapiens, BJ
BJ [17] = assay: cells; assay type: functional, cell-based, Homo sapiens; details: Homo sapiens, BJ
BJ [18] = assay: cytotoxicity toward BJ-TERT-LT-ST fibroblasts, dose response, cell-based, RAS-independent, luminescence (AID 1935); assay type: functional, Homo sapiens; details: Homo sapiens, BJ;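 note: BJ fibroblasts immortalized with TERT plus LT and ST oncogenes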
[19] = cytotoxicity toward DRD oncogenic fibroblasts, dose response, cell-based, non-viral oncogenic, luminescence (AID 1934); assay type: functional; details: Homo sapiens
[20] = molecular target: T4, Short transient receptor potential channel 4 (Mus musculus, UniProt Q9QUQ5); assay: mouse TRPC4 channel inhibitors, dose response, cell-based, HEK293 TRPC4/mu-opioid, Fluo-4 calcium (AID 434942); assay type: functional;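 note: potency of inhibitors blocking the TRPC4 calcium response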
T4 sequence (Q9QUQ5 whole entry): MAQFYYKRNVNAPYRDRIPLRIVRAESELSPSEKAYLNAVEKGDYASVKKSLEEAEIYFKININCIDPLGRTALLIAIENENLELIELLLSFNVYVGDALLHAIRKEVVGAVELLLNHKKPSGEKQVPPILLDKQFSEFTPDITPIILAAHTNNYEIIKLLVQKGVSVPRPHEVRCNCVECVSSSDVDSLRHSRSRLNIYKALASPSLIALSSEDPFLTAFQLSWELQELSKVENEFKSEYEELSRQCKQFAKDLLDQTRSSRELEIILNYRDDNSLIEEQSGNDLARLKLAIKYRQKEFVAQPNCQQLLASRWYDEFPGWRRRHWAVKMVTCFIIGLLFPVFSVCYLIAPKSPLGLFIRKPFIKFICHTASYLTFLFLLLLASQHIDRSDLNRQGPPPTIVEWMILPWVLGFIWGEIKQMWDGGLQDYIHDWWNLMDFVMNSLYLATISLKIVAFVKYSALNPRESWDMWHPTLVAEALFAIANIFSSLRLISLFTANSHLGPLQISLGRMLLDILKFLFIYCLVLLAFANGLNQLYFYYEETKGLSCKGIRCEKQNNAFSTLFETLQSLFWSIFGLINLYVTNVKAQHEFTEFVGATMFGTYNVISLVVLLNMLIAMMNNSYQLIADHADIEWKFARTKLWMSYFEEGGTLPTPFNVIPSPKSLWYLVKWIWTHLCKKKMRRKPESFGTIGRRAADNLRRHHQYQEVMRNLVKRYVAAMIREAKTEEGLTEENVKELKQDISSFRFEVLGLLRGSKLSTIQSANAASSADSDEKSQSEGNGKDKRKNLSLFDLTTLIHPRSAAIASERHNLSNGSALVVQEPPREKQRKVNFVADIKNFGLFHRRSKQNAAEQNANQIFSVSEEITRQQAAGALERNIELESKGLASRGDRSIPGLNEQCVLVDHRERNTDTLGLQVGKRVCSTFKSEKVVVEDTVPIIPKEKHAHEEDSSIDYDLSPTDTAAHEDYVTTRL

BJ [21] = assay: cytotoxicity toward Ras-transformed BJeLR fibroblasts, dose response, cell-based, alamar blue fluorescence, cherrypicked samples (AID 2631); assay type: functional; details: Homo sapiens;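 note: confirmatory dose-response assay in RAS-dependent BJ fibroblasts engineered with TERT, LT and ST, with cytotoxicity read by fluorescence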
[22] = HeLa cell cytotoxicity, dose response, cytotoxicity control for MgcRacGAP inhibitor project (AID 624300); assay type: functional
[23] = molecular target: T5, Rac GTPase-activating protein 1 (Homo sapiens, UniProt Q9H0H5); assay: MgcRacGAP GTPase-activating activity inhibitors, confirmation, biochemical, ADP Hunter fluorescence, primary and confirmatory (AID 624330); assay type: functional
T5 sequence (Q9H0H5 whole entry): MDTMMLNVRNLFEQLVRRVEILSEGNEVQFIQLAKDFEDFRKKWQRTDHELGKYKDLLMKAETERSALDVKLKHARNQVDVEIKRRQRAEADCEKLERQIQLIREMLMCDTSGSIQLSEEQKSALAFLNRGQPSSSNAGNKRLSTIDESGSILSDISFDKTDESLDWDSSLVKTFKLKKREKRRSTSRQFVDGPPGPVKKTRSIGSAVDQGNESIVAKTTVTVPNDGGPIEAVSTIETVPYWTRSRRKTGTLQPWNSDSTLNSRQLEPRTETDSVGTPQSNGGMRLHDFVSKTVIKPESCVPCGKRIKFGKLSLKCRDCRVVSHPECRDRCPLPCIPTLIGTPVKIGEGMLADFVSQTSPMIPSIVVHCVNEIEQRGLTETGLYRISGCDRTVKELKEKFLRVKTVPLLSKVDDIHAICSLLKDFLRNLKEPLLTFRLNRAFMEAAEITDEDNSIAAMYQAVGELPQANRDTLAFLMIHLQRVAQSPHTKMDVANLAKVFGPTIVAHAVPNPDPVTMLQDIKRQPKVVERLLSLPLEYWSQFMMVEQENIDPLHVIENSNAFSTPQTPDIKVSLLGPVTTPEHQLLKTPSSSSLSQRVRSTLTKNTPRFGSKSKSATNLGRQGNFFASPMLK

[24] = molecular target: T6, DNA repair protein RAD52 homolog (Homo sapiens, UniProt P43351); assay type: functional, biochemical
T6 sequence (P43351 whole entry): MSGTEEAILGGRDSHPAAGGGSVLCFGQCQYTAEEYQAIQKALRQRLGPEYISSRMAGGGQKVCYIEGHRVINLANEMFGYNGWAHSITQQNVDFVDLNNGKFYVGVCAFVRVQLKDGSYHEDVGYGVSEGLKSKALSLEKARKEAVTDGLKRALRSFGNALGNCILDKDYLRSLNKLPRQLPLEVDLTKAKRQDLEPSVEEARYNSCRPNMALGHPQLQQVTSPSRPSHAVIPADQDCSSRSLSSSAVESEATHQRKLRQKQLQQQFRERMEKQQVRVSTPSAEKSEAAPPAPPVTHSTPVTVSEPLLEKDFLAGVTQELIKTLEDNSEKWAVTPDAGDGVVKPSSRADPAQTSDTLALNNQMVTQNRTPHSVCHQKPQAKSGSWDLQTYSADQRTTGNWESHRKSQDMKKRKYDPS

Paired box protein Pax-8 = Paired box protein Pax-8 (Homo sapiens, UniProt Q06710); assay: inhibitors of PAX8-driven TPO luciferase reporter, dose response, RMG-I cells, cherry-pick (AID 687027); assay type: functional, cell-based;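 note: luciferase reporter driven by Pax8 target thyroperoxidase promoter measured by SteadyGlo luminescence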
[25] = non-specific cell cytotoxicity, dose response, cytotoxicity control for PAX8 inhibitor project, plate reader, dry powder samples (AID 743021); assay type: functional, cell-based

Chain of Dual specificity protein kinase CLK1 (P49759 whole entry): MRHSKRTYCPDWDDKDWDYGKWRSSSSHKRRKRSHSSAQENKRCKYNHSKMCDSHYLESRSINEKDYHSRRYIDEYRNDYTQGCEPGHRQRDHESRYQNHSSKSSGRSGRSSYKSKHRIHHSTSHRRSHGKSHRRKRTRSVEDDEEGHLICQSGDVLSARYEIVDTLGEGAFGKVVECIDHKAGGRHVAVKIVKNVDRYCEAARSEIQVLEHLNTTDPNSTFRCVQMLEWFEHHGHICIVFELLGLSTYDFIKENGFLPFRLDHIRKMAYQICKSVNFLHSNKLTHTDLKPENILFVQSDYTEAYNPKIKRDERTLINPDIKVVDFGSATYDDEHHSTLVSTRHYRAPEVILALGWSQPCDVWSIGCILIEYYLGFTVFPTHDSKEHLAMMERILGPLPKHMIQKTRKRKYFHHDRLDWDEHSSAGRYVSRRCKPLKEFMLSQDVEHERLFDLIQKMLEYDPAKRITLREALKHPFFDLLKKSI
Chain of Paired box protein Pax-8 (Q06710 whole entry): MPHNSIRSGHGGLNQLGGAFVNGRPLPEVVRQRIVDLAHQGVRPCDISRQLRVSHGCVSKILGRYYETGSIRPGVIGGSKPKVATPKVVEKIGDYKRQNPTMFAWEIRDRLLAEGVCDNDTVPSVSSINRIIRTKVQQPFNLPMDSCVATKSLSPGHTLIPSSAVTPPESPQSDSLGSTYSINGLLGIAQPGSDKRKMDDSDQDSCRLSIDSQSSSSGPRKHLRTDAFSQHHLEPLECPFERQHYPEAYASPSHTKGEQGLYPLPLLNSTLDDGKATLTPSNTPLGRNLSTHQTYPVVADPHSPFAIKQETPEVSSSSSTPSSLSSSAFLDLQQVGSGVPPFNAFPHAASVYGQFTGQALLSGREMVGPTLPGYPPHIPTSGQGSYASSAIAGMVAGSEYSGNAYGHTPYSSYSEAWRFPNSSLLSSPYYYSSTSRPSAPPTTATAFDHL
Chain of Beta-galactosidase (Q8VNN2 whole entry): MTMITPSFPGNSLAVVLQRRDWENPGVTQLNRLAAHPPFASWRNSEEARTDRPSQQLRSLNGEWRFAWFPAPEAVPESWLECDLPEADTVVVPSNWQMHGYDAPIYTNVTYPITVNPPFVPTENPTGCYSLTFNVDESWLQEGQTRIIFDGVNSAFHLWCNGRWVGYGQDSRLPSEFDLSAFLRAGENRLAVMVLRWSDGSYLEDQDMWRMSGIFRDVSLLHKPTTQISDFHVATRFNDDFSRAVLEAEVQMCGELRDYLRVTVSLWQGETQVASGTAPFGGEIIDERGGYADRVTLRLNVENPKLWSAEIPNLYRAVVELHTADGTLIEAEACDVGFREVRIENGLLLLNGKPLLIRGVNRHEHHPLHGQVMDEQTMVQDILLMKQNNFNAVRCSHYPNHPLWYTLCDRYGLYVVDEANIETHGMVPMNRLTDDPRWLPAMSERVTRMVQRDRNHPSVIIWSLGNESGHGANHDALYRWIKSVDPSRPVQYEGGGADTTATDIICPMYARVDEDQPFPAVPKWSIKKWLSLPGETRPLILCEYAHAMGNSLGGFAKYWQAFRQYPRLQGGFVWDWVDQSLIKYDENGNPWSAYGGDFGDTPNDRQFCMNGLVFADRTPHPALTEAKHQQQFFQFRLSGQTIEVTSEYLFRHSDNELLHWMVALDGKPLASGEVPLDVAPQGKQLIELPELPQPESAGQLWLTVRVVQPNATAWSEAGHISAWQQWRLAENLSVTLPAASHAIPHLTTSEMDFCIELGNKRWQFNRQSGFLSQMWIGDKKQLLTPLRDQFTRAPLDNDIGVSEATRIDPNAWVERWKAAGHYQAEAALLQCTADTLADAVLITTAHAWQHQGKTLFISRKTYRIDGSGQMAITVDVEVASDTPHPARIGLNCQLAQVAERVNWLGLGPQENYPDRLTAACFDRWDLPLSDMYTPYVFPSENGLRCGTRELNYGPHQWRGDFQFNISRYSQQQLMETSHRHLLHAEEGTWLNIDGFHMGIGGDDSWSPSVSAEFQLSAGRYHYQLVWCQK

COc1cc(NS(=O)(=O)c2ccc(C)cc2)c2ncccc2c1
EC50 [1]: 2.6 µM (active)
EC50 (Beta-galactosidase): > 40 µM (inactive)
EC50 [2]: 24.3 µM (active)
EC50 (Streptokinase A): > 150 µM (not active)
EC50 [3]: 0.524 µM (active)
IC50 [4]: 1.58 µM (active)
IC50 [5]: 3.88 µM (active)
EC50 [6]: 1.45 µM (active)
EC50 (Streptococcus): 21.7 µM (active)
IC50 [7]: > 80 µM (inactive)
IC50 (HEK293 [8]): > 80 µM (inactive)
IC50 (Jurkat): 1.52 µM (active)
IC50 (HEK293 [9]): > 79 µM (inactive)
AC50 [10]: 3.35 µM (active)
AC50 [11]: 9.77 µM (active)
AC50 [12]: 13.8 µM (active)
IC50 [13]: 5.53 µM (active)

Cc1c(-c2ccnc(NCc3cccnc3)n2)sc(=O)n1C
AC50 [14]: 15.1 µM (active)
AC50 [15]: 0.116 µM (active)

Cc1cc(C)c2nc(C)cc(N/N=C/c3ccc(O)cc3)c2c1
EC50 (BJ [16]): 2.56 µM (inconclusive)
EC50 (BJ [17]): 5.87 µM (active)
EC50 (BJ [18]): 2.78 µM (inconclusive)
EC50 [19]: 5.11 µM (inconclusive)
EC50 [20]: 5.96 µM (active)
IC50 [7]: 18.1 µM (active)
EC50 (BJ [21]): 0.555 µM (active)
CC50 [22]: 13.3 µM (active)
IC50 [23]: 18.2 µM (active)
AC50 [24]: 0.939 µM (active)
AC50 (Paired box protein Pax-8): 9.08 µM (active)
AC50 [25]: 50.5 µM (active)
